Results on 31 compounds are retold here after US20250134869A1, “Pyrrolo[2,3-d]pyrimidinyl, Pyrrolo[2,3-b]pyrazinyl and Pyrrolo[2,3-d]pyridinyl Acryla-mides” (Pfizer Inc, priority 2021, published 2025).

Like-named read-outs stand apart in the source and are kept apart here.

The experiment concerns the target JAK3 enzyme (Homo sapiens (Human), UniProt P52333). Briefly: JAK Caliper Enzyme Assay at 4 μM or 1 mM ATP. It counts as biochemical.
Setting [1] is: read-out: JAK3 (4 μM ATP) IC50, 4 μM ATP.
The mark [2] stands for this setting: read-out: JAK3 (1 mM ATP) IC50, 1 mM ATP.

JAK3 enzyme, sequence (P52333 whole entry, species assumed): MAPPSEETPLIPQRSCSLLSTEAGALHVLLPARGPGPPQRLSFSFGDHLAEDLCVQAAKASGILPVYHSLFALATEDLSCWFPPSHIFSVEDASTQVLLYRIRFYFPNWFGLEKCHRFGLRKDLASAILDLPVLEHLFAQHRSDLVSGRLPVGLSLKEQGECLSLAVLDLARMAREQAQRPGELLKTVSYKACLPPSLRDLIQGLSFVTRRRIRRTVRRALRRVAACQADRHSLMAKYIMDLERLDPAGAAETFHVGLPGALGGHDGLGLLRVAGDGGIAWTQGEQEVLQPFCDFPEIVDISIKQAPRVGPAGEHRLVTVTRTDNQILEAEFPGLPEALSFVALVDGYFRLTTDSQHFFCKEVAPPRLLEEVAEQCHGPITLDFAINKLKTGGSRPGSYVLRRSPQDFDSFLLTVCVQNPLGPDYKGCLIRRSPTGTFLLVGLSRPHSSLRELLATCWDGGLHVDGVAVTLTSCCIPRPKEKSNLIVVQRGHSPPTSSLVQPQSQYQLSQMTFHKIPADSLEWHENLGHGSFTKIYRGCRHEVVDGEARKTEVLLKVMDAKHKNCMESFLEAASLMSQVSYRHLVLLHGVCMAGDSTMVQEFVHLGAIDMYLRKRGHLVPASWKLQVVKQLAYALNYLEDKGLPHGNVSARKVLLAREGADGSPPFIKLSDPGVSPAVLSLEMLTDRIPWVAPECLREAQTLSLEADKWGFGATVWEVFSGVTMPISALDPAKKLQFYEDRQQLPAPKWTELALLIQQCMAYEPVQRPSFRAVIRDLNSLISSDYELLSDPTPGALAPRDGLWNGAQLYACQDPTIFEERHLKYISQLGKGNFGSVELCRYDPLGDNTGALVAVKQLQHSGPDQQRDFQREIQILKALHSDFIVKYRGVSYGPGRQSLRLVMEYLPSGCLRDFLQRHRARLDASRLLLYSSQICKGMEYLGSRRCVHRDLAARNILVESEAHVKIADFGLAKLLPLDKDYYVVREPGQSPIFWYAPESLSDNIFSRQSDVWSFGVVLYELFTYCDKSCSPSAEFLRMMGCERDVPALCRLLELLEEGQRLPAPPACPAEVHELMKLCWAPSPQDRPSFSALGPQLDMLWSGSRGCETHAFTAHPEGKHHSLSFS

Consider `C=CC(=O)N1CCC[C@@H](Nc2ncnc3[nH]cc(C=C)c23)C1` [Example 40, 1-{(3R)-3-[(5-ethenyl-7H-pyrrolo[2,3-d]pyrimidin-4-yl)amino]piperidin-1-yl}prop-2-en-1-one], for which the IC50 under setting [1] is more than 10000 nM. As for `C=CC(=O)N1CCC[C@@H](Nc2ncnc3[nH]cc(-c4cncc(OC)c4)c23)C1` [Example 24, 1-[(3R)-3-{[5-(5-methoxypyridin-3-yl)-7H-pyrrolo[2,3-d]pyrimidin-4-yl]amino}piperidin-1-yl]prop-2-en-1-one], the IC50 was 1.2 nM under setting [1] and 98.1 nM under setting [2]. On to `C=CC(=O)N1CC2(C1)CN(c1cnc3[nH]cc(C(=O)NC(C)C)c3n1)C2C` (stereo not drawn) [Example 322, 2-(6-acryloyl-1-methyl-2,6-diazaspiro[3.3]hept-2-yl)-N-(propan-2-yl)-5H-pyrrolo[2,3-b]pyrazine-7-carboxamide], for which the IC50 worked out at 29.4 nM under setting [1] and 3440 nM under setting [2]. On the same counts, the results for `C=CC(=O)N1CCC(Oc2cnc3[nH]cc(-c4ccc(C#N)nc4)c3n2)CC1` [Example 216, 5-{2-[(1-acryloylpiperidin-4-yl)oxy]-5H-pyrrolo[2,3-b]pyrazin-7-yl}pyridine-2-carbonitrile] are 12.5 nM and 1030 nM. `C=CC(=O)N1CCC(Nc2cnc3[nH]cc(C(=O)N4CCCC4)c3n2)CC1` [Example 287, 1-(4-{[7-(pyrrolidin-1-ylcarbonyl)-5H-pyrrolo[2,3-b]pyrazin-2-yl]amino}piperidin-1-yl)prop-2-en-1-one]: the half-maximal inhibitory concentration (IC50) is, setting by setting: under setting [1], 4.2 nM; under setting [2], 346 nM. For `C=CC(=O)N1CCN(c2cnc3[nH]cc(C(=O)NC(C)C)c3n2)[C@@H](CC)C1` [Example 325, 2-[(2S)-4-acryloyl-2-ethylpiperazin-1-yl]-N-(propan-2-yl)-5H-pyrrolo[2,3-b]pyrazine-7-carboxamide], the IC50 is, setting by setting: under setting [1], 5 nM; under setting [2], 480 nM. Take `C=CC(=O)N1CCC(Nc2cnc3[nH]cc(C(=O)NCC4(O)CCCC4)c3n2)CC1` [Example 232, 2-[(1-acryloylpiperidin-4-yl)amino]-N-[(1-hydroxycyclopentyl)methyl]-5H-pyrrolo[2,3-b]pyrazine-7-carboxamide]: the IC50 runs as follows: under setting [1], 0.3 nM; under setting [2], 25 nM. In the same order, the values of `C=CC(=O)N1CCN(c2cnc3[nH]cc(C(=O)NC(C)C)c3n2)[C@@H](C(C)C)C1` [Example 323, 2-[(2S)-4-acryloyl-2-(propan-2-yl)piperazin-1-yl]-N-(propan-2-yl)-5H-pyrrolo[2,3-b]pyrazine-7-carboxamide] are 11.9 nM and 886 nM.

Regarding `C=CC(=O)N1CCC(Oc2cnc3[nH]cc(-c4ccc(S(C)(=O)=O)cc4)c3n2)CC1` [Example 229, 1-[4-({7-[4-(methylsulfonyl)phenyl]-5H-pyrrolo[2,3-b]pyrazin-2-yl}oxy)piperidin-1-yl]prop-2-en-1-one], the IC50 reads like this: under setting [1], 7.1 nM; under setting [2], 745 nM. On to `C=CC(=O)NC1CCN(c2cnc3[nH]ccc3n2)C1` (stereo not drawn) [Example 167, N-[1-(5H-pyrrolo[2,3-b]pyrazin-2-yl)pyrrolidin-3-yl]prop-2-enamide], for which the IC50 under setting [1] is 2410 nM. For the compound `C=CC(=O)N1C[C@H](Nc2ncnc3[nH]ccc23)[C@H]2CC[C@@H]1C2` [Example 127, 1-((1R,4R,5S)-4-(7H-pyrrolo[2,3-d]pyrimidin-4-ylamino)-2-azabicyclo[3.2.1]octan-2-yl)prop-2-en-1-one], the IC50 is, setting by setting: under setting [1], 190 nM; under setting [2], more than 10000 nM. As to `C=CC(=O)N1CCC[C@@H](Nc2ncnc3[nH]cc(C4CC4)c23)C1` [Example 37, 1-{(3R)-3-[(5-cyclopropyl-7H-pyrrolo[2,3-d]pyrimidin-4-yl)amino]piperidin-1-yl}prop-2-en-1-one], the IC50 under setting [1] was 295 nM. As to `C=C(C)C(=O)N1CCC[C@@H](N2CC(C)c3c[nH]c4ncnc2c34)C1` (mixture of isomers) [Example 153, 2-Methyl-1-[(3R)-3-(3-methyl-3,4-dihydro-1,5,6,8-tetraazaacenaphthylen-5 (1H)-yl)piperidin-1-yl]prop-2-en-1-one], under setting [1], the IC50 was 9440 nM.

`C=CC(=O)N1CCC[C@@H](Nc2ncnc3[nH]cc(C(=O)NCCO)c23)C1` [Example 143, 4-{[(3R)-1-acryloylpiperidin-3-yl]amino}-N-(2-hydroxyethyl)-7H-pyrrolo[2,3-d]pyrimidine-5-carboxamide]: the IC50 under setting [1] stood at 144 nM. For the compound `C=CC(=O)N1CCC(Nc2cnc3[nH]cc(-c4cnc(OC)nc4)c3n2)CC1` [Example 210, 1-(4-{[7-(2-methoxypyrimidin-5-yl)-5H-pyrrolo[2,3-b]pyrazin-2-yl]amino}piperidin-1-yl)prop-2-en-1-one], the IC50 runs as follows: under setting [1], 0.4 nM; under setting [2], 45.4 nM. On the same counts, the results for `C=CC(=O)N1CCC(Nc2cnc3[nH]cc(C(=O)NCC(C)(C)C)c3n2)CC1` [Example 271, 2-[(1-acryloylpiperidin-4-yl)amino]-N-(2,2-dimethylpropyl)-5H-pyrrolo[2,3-b]pyrazine-7-carboxamide] are 0.4 nM and 14.9 nM. For the compound `C=CC(=O)N1CCC(Oc2cnc3[nH]cc(C(=O)NC(C)C)c3n2)CC1` [Example 339, 2-((1-Acryloylpiperidin-4-yl)oxy)-N-isopropyl-5H-pyrrolo[2,3-b]pyrazine-7-carboxamide], the IC50 was determined as 0.2 nM under setting [1] and 17.5 nM under setting [2]. `C=CC(=O)N1CCC[C@@H](Nc2ncnc3[nH]cc(C(=O)NCC)c23)C1` [Example 144, 4-{[(3R)-1-acryloylpiperidin-3-yl]amino}-N-ethyl-7H-pyrrolo[2,3-d]pyrimidine-5-carboxamide]: the IC50 under setting [1] is 139 nM. For the compound `C=CC(=O)N1CCC(Nc2cnc3[nH]cc(-c4ccncc4F)c3n2)CC1` [Example 200, 1-(4-{[7-(3-fluoropyridin-4-yl)-5H-pyrrolo[2,3-b]pyrazin-2-yl]amino}piperidin-1-yl)prop-2-en-1-one], the concentration for half-maximal inhibition (IC50) under setting [1] is 0.8 nM and the IC50 under setting [2] came out at 88.9 nM.

In the case of `C=C(C(=O)N1CC[C@@H]2CCN(c3ncnc4[nH]ccc34)[C@@H]2C1)C(F)(F)F` [Example 41, 1-((3aS,7aS)-1-(7H-Pyrrolo[2,3-d]pyrimidin-4-yl)hexahydro-1H-pyrrolo[2,3-c]pyridin-6 (2H)-yl)-2-(trifluoromethyl)prop-2-en-1-one], the IC50 under setting [1] was 1 nM and the IC50 under setting [2] stood at 92.5 nM.

As for `C=CC(=O)N1CC2COCC(C1)N2c1cnc2[nH]cc(C(=O)NC(C)C)c2n1` [Example 324, 2-(7-acryloyl-3-oxa-7,9-diazabicyclo[3.3.1]non-9-yl)-N-(propan-2-yl)-5H-pyrrolo[2,3-b]pyrazine-7-carboxamide], the IC50 worked out at 37.5 nM under setting [1] and 3100 nM under setting [2]. On to `C=CC(=O)N1CCC(Nc2cnc3[nH]cc(C(=O)NCCC#N)c3n2)CC1` [Example 261, 2-[(1-acryloylpiperidin-4-yl)amino]-N-(2-cyanoethyl)-5H-pyrrolo[2,3-b]pyrazine-7-carboxamide], for which the IC50 runs as follows: under setting [1], 0.2 nM; under setting [2], 7.4 nM. Regarding `C=CC(=O)N1CCN(c2cnc3[nH]cc(C(=O)NC(C)C)c3n2)[C@@H](C)C1` [Example 297, 2-[(2S)-4-acryloyl-2-methylpiperazin-1-yl]-N-(propan-2-yl)-5H-pyrrolo[2,3-b]pyrazine-7-carboxamide], the IC50 reads like this: under setting [1], 1.5 nM; under setting [2], 181 nM. For `C=CC(=O)N1CCC(Nc2cnc3[nH]cc(C(=O)N[C@@H](C)CCC)c3n2)CC1` [Example 267, 2-[(1-acryloylpiperidin-4-yl)amino]-N-[(2S)-pentan-2-yl]-5H-pyrrolo[2,3-b]pyrazine-7-carboxamide], the IC50 is, setting by setting: under setting [1], 0.3 nM; under setting [2], 9 nM. On the same counts, the results for `C=CC(=O)N1CCC(Nc2cnc3[nH]cc(C(=O)N(C)C(C)C)c3n2)CC1` [Example 279, 2-[(1-acryloylpiperidin-4-yl)amino]-N-methyl-N-(propan-2-yl)-5H-pyrrolo[2,3-b]pyrazine-7-carboxamide] are 9.7 nM and 592 nM. On to `C=C(C)C(=O)N1CCC[C@@H](Nc2ncnc3[nH]cc(CCO)c23)C1` [Example 152, 1-[(3R)-3-{[5-(2-Hydroxyethyl)-7H-pyrrolo[2,3-d]pyrimidin-4-yl]amino}piperidin-1-yl]-2-methylprop-2-en-1-one], for which the IC50 under setting [1] was 4240 nM. Consider `C=CC(=O)N1C[C@H](Nc2ncnc3[nH]ccc23)CC[C@H]1CC` [Example 124, 1-[(2R,5R)-2-Ethyl-5-(7H-pyrrolo[2,3-d]pyrimidin-4-ylamino)piperidin-1-yl]prop-2-en-1-one], for which the IC50 runs as follows: under setting [1], 265 nM; under setting [2], more than 10000 nM. On the same counts, the results for `C=CC(=O)N1CCC(Nc2cnc3[nH]cc(C(=O)NC45CC(C4)C5)c3n2)CC1` [Example 281, 2-[(1-acryloylpiperidin-4-yl)amino]-N-(bicyclo[1.1.1]pent-1-yl)-5H-pyrrolo[2,3-b]pyrazine-7-carboxamide] are 0.4 nM and 5.2 nM. With `C=CC(=O)N1CCC(Nc2cnc3[nH]cc(C(=O)NCC4(O)CCC(F)(F)CC4)c3n2)CC1` [Example 252b, 2-[(1-acryloylpiperidin-4-yl)amino]-N-[(4,4-difluoro-1-hydroxycyclohexyl)methyl]-5H-pyrrolo[2,3-b]pyrazine-7-carboxamide], the IC50 is 0.5 nM under setting [1] and 40.6 nM under setting [2]. With `C=CC(=O)N1CCC[C@@H](Nc2ncnc3[nH]cc(CC(C)C)c23)C1` [Example 39, 1-[(3R)-3-{[5-(2-methylpropyl)-7H-pyrrolo[2,3-d]pyrimidin-4-yl]amino}piperidin-1-yl]prop-2-en-1-one], the IC50 under setting [1] is more than 10000 nM. Regarding `C=CC(=O)N1CCC(Nc2cnc3[nH]cc(C(=O)NCC4(O)CCC4)c3n2)CC1` [Example 231, 2-[(1-acryloylpiperidin-4-yl)amino]-N-[(1-hydroxycyclobutyl)methyl]-5H-pyrrolo[2,3-b]pyrazine-7-carboxamide], the IC50 under setting [1] came to 0.6 nM and the IC50 under setting [2] amounted to 52.6 nM.

In general, IC50 refers to the concentration at which inhibition is half-maximal.
